A value given as a limit tells only on which side of the number the result lay.

The text below walks through data of US9133230B2, “Hydrazone derivatives having potent antitumor activity toward multi-drug resistant tumor cells” (THE UNITED STATES OF AMERICA AS REPRESENTED BY THE …, priority 2011, dated 2015).

Data set [1] concerns human myelogenous leukemia K562. The data set is described as follows: MTS cytotoxicity assay, K562. Type of data set: cell-based. On the procedure:
(§1) In order to obtain information about the growth-inhibiting action of hydrazones reported in the present invention on tumor cells, growth inhibition was assessed for the following human tumor cell lines: human myelogenous leukemia K562, human cervical adenocarcinoma HeLa, human colon adenocarcinoma Caco-2, human colon carcinoma HT-29, human colon carcinoma HCT-15, and human breast carcinoma MCF-7.
(§2) The K562, HeLa, HT-29, HCT-15, Caco-2, and MCF-7 cell lines were obtained from the American type Culture Collection (ATCC, Manassas, Va.). K562 cells were maintained in RPMI 1640 medium (Gibco/Life Technologies, Gaithersburg, Md.) containing 10% heat-inactivated fetal bovine serum (FBS) (Atlanta Biologicals, Atlanta, Ga.) and 10000 U/L penicillin and 50 mg/L streptomycin. HeLa, HT-29, HCT-15, Caco-2 and MCF-7 cells were maintained in MEM with Earl's balanced salts, 10% FBS, penicillin, and streptomycin as above. Logarithmically growing HT-29, Caco-2, and MCF-7 cells were incubated with 0.05% trypsin containing 1 mM EDTA at 37° C. for about 5 min until cells were nonadherent and formed a single cell suspension. Trypsin activity was neutralized by adding 20-fold excess of the serum-containing medium. Cells were cultured at 37° C. in an atmosphere of air and 5% CO2.
(§3) Cytotoxicity assays were conducted by tetrazolium reduction of 3-(4,5-dimethylthiazol-2-yl)-5-(3-carboxymethoxyphenyl)-2-(4-sulfophenyl)-2H-tetrazolium (MTS) with N-methylphenazonium methyl sulfate (PMS) (CellTiter Assay, Promega, Madison, Wis.). Logarithmically growing cells were plated in 0.1 mL aliquots in 96-well microtiter plates. Cells were plated at an initial density of about 5000 cells/mL and allowed to acclimatize for 24 h. Cell suspensions were treated with various dilutions of compounds in triplicate, mixed well, and allowed to incubate for 48 h at 37° C. in an atmosphere of air and 5% CO2. To the cell suspension was added 20 μL of tetrazolium reagent, the mixture was incubated for 2 h at 37° C. in an atmosphere of air and 5% CO2, and absorbance at 490 nm was read by microplate reader. Control plates with serial dilutions of cell types were counted as a control for the assay. In all cases, controls indicated a linear response versus cell number, R^2≧0.99.

The test system of data set [2] is human colon adenocarcinoma Caco-2. In words: MTS cytotoxicity assay, Caco-2. The format is cell-based. The method, then: as §1, §2, §3
On the technique in general: Formazan colour is commonly taken as a measure of viable cells.

The test system of data set [3] is human breast carcinoma MCF-7. The data set is described as follows: MTS cytotoxicity assay, MCF-7. The format is cell-based. On the procedure: as §1, §2, §3
Data set [4] deals with human colon carcinoma HT-29. In words: MTS cytotoxicity assay, HT-29. The format is cell-based. The method, then:
as §1, §2, §3

Data set [5] deals with human cervical adenocarcinoma HeLa. The data set is described as follows: MTS cytotoxicity assay, HeLa. The format is cell-based. The following applies: 48 h incubation. The method, then: as §1, §2, §3
Data set [6] concerns human colon carcinoma HCT-15. In words: MTS cytotoxicity assay, HCT-15. The format is cell-based. On the procedure: as §1, §2, §3
The test system of the next data set is HL60-VCR. The following applies: MDR cell line characterisation; cited from earlier work.
Where [7] appears, read: Homo sapiens, Caco-2, 48 h incubation.
The mark [8] stands for this setting: Homo sapiens, K562, 48 h incubation.
[9] abbreviates: Homo sapiens, MCF7, 48 h incubation.
[10] abbreviates: Homo sapiens, HT-29, 48 h incubation.
The mark [11] stands for this setting: Homo sapiens, HCT-15, 48 h incubation.

In data set [1] (48 h incubation), “6-(2-(Dipyridin-2-yl)methylene)hydrazinyl)-9-methyl-9H-purine [I-23]” came in with a GI50 of 0.9 µM.

For `C[C@]1(O)C(O)[C@H](n2cnc3c(NN=C(c4ccccc4)c4ccccn4)ncnc32)O[C@@H]1CO` (stereo partly drawn) [I-1, (2R,3S,5R)-2-(hydroxymethyl)-3-methyl-5-(6-(2-(phenyl(pyridin-2-yl)methylene)hydrazinyl)-9H-purin-9-yl)tetrahydrofuran-3,4-diol], the GI50 in data set [2] (setting [7]) was 43.2 µM; in data set [1] (setting [8]) it was 48.1 µM; in data set [3] (setting [9]) it was over 100 µM; in data set [4] (setting [10]) it was 57.2 µM; in data set [5] (Homo sapiens, HeLa) it was 68.9 µM.

Consider `CC(=NNc1ncnc2c1ncn2C1O[C@H](CO)[C@@](C)(O)[C@H]1O)c1ccccn1` (stereo partly drawn) [I-2, (2R,3S,4R)-2-(hydroxymethyl)-3-methyl-5-(6-(2-(1-(pyridin-2-yl)ethylidene)hydrazinyl)-9H-purin-9-yl)tetrahydrofuran-3,4-diol], for which the GI50 in data set [2] (setting [7]) turned out to be 23 µM; in data set [1] (setting [8]), 11 µM; in data set [3] (setting [9]), 13.5 µM; in data set [4] (setting [10]), 17.6 µM; in data set [5] (Homo sapiens, HeLa), 21 µM.

As to `CC(=NNc1ncnc2c1ncn2C1O[C@H](CO)[C@@](C)(O)[C@H]1O)c1cccnc1` (stereo partly drawn) [I-3, (2R,3S,4R)-2-(hydroxymethyl)-3-methyl-5-(6-(2-(1-(pyridin-3-yl)ethylidene)hydrazinyl)-9H-purin-9-yl)tetrahydrofuran-3,4-diol], the GI50 in data set [2] (setting [7]) came out at 2.2 µM; in data set [1] (setting [8]), 12 µM; in data set [3] (setting [9]), 17 µM; in data set [6] (setting [11]), 11.2 µM; in data set [4] (setting [10]), 15 µM; in data set [5] (Homo sapiens, HeLa), 17 µM.

In the case of `C[C@@]1(O)[C@@H](CO)OC(n2cnc3c(NN=Cc4ccccn4)ncnc32)[C@@H]1O` (stereo partly drawn) [I-4], the GI50 amounted to 7.6 µM in data set [2] (48 h incubation); 6.8 µM in data set [1] (48 h incubation); 22 µM in data set [3] (48 h incubation); 3.9 µM in data set [6] (48 h incubation); 27 µM in data set [4] (48 h incubation); 7.6 µM in data set [5].

Take `OC[C@H]1O[C@@H](n2cnc3c(NN=C(c4ccccc4)c4ccccn4)ncnc32)C(O)C1O` (stereo partly drawn) [I-5, (2R,5R)-2-(hydroxymethyl)-5-(6-(2-(phenyl(pyridin-2-yl)methylene)hydrazinyl)-9H-purin-9-yl)tetrahydrofuran-3,4-diol]: the GI50 was found to be 64.5 µM in data set [2] (setting [7]); 49 µM in data set [1] (setting [8]); 44.9 µM in data set [3] (setting [9]); 52.5 µM in data set [4] (setting [10]); 36 µM in data set [5] (Homo sapiens, HeLa).

On to `CC(=NNc1ncnc2c1ncn2[C@@H]1O[C@H](CO)C(O)C1O)c1ccccn1` (stereo partly drawn) [I-6, (2R,5R)-2-(hydroxymethyl)-5-(6-(2-(1-(pyridin-2-yl)ethylidene)hydrazinyl)-9H-purin-9-yl)tetrahydrofuran-3,4-diol], for which the GI50 came out at 14 µM in data set [2] (setting [7]); 11 µM in data set [1] (setting [8]); 15 µM in data set [3] (setting [9]); 38 µM in data set [4] (setting [10]); 12 µM in data set [5] (Homo sapiens, HeLa).

In the case of `CC(=NNc1ncnc2c1ncn2[C@@H]1O[C@H](CO)C(O)C1O)c1cccnc1` (stereo partly drawn) [I-7, (2R,5R)-2-(hydroxymethyl)-5-(6-(2-(1-(pyridin-3-yl)ethylidene)hydrazinyl)-9H-purin-9-yl)tetrahydrofuran-3,4-diol], the GI50 in data set [2] (setting [7]) was found to be 63.3 µM; in data set [1] (setting [8]) it was 45 µM; in data set [3] (setting [9]), 93 µM; in data set [4] (setting [10]), 144 µM; in data set [5] (Homo sapiens, HeLa), 25 µM.

Regarding `CC(=NNc1ncnc2c1ncn2[C@@H]1O[C@H](CO)C(O)C1O)c1ccncc1` (stereo partly drawn) [I-8, (2R,5R)-2-(hydroxymethyl)-5-(6-(2-(1-(pyridin-4-yl)ethylidene)hydrazinyl)-9H-purin-9-yl)tetrahydrofuran-3,4-diol], the GI50 is 49.6 µM in data set [2] (setting [7]); 56 µM in data set [1] (setting [8]); 68 µM in data set [3] (setting [9]); 213 µM in data set [4] (setting [10]); 60 µM in data set [5] (Homo sapiens, HeLa).

Consider `OC[C@H]1OC(n2cnc3c(NN=Cc4cccnc4)ncnc32)[C@H](O)[C@@H]1O` (stereo partly drawn) [I-10], for which the GI50 in data set [2] (48 h incubation) was 0.9 µM; in data set [1] (48 h incubation), 22 µM; in data set [3] (48 h incubation) it was 14 µM; in data set [6] (48 h incubation), 22 µM; in data set [4] (48 h incubation), 18 µM; in data set [5] it was 18 µM.

Turning to `OC[C@H]1OC(n2cnc3c(NN=Cc4ccncc4)ncnc32)[C@H](O)[C@@H]1O` (stereo partly drawn) [I-11], the GI50 in data set [2] (48 h incubation) came to 11 µM; in data set [1] (48 h incubation) it was 58 µM; in data set [3] (48 h incubation) it was 70 µM; in data set [6] (48 h incubation) it was 71 µM; in data set [4] (48 h incubation), 79 µM; in data set [5], 56 µM.

In the case of `OC[C@H]1OC(n2cnc3c(NN=C(c4ccccn4)c4ccccn4)ncnc32)[C@H](O)[C@@H]1O` (stereo partly drawn) [I-13], the GI50 in data set [2] (48 h incubation) was 0.2 µM; in data set [1] (48 h incubation), 0.3 µM; in data set [3] (48 h incubation), 0.9 µM; in data set [6] (48 h incubation), under 1 µM; in data set [4] (48 h incubation), 0.8 µM; in data set [5], 0.3 µM.

For `N#Cc1ccccc1C=NNc1ncnc2c1ncn2C1O[C@H](CO)[C@@H](O)[C@H]1O` (stereo partly drawn) [I-14, 2-((2-(9-((3R,4S,5R)-3,4-dihydroxy-5-(hydroxymethyl)tetrahydrofuran-2-yl)-9H-purin-6-yl)hydrazono)methyl)benzonitrile], the GI50 in data set [2] (setting [7]) was 0.8 µM; in data set [1] (setting [8]), 0.7 µM; in data set [3] (setting [9]), 1.9 µM; in data set [6] (setting [11]), under 1 µM; in data set [4] (setting [10]), 1.2 µM; in data set [5] (Homo sapiens, HeLa), 0.8 µM.

`Cc1ccc(C=NNc2ncnc3c2ncn3C2O[C@H](CO)[C@@H](O)[C@H]2O)s1` (stereo partly drawn) [I-15, (2R,3S,4R)-2-(hydroxymethyl)-5-(6-(2-((5-methylthiophen-2-yl)methylene)hydrazinyl)-9H-purin-9-yl)tetrahydrofuran-3,4-diol]: the GI50 in data set [2] (setting [7]) was determined as 1.8 µM; in data set [1] (setting [8]) it was 19 µM; in data set [3] (setting [9]), 16 µM; in data set [6] (setting [11]), 5 µM; in data set [4] (setting [10]), 16 µM; in data set [5] (Homo sapiens, HeLa), 4.3 µM.

Take `OC[C@H]1OC(n2cnc3c(NN=Cc4ccccc4)ncnc32)[C@H](O)[C@@H]1O` (stereo partly drawn) [I-16]: the GI50 in data set [2] (48 h incubation) amounted to 7.6 µM; in data set [1] (48 h incubation) it was 15 µM; in data set [3] (48 h incubation) it was 10 µM; in data set [6] (48 h incubation), 5.5 µM; in data set [4] (48 h incubation), 13 µM; in data set [5], 3 µM.

Take `CC(=NNc1ncnc2c1ncn2C1O[C@H](CO)[C@@H](O)[C@H]1O)c1ccccc1` (stereo partly drawn) [I-17, (2R,3S,4R)-2-(hydroxymethyl)-5-(6-(2-(1-phenylethylidene)hydrazinyl)-9H-purin-9-yl)tetrahydrofuran-3,4-diol]: the GI50 in data set [2] (setting [7]) worked out at 3.1 µM; in data set [1] (setting [8]), 5 µM; in data set [3] (setting [9]), 3.1 µM; in data set [6] (setting [11]), 4.6 µM; in data set [4] (setting [10]), 2.6 µM; in data set [5] (Homo sapiens, HeLa), 1.6 µM.

As for `c1ccc(C(=NNc2ncnc3[nH]cnc23)c2ccccn2)cc1` [I-19, 6-(2-(Phenyl(pyridin-2-yl)methylene)hydrazinyl)-9H-purine], the GI50 in data set [2] (setting [7]) is 0.9 µM; in data set [1] (setting [8]), 0.9 µM; in data set [3] (setting [9]), 0.9 µM; in data set [6] (setting [11]) it was under 1 µM; in data set [4] (setting [10]), 0.9 µM; in data set [5] (Homo sapiens, HeLa) it was 1.4 µM.

Compound `c1ccc(C(=NNc2ncnc3[nH]cnc23)c2ccccn2)nc1` [I-20, 6-(2-(Dipyridin-2-ylmethylene)hydrazinyl)-9H-purine] yielded a GI50 in data set [1] (setting [8]) of 0.1 µM. This lies in the sub-micromolar range.

For `Cc1ccc(C=NNc2ncnc3[nH]cnc23)s1` [I-21, 6-[2-((5-Methylthiophen-2-yl)methylene)hydrazinyl]-9H-purine], the GI50 in data set [2] (setting [7]) came out at 39 µM; in data set [1] (setting [8]), 11 µM; in data set [3] (setting [9]) it was 11 µM; in data set [6] (setting [11]) it was 40 µM; in data set [4] (setting [10]) it was 35 µM; in data set [5] (Homo sapiens, HeLa) it was 38 µM.

On to `C(=NNc1ncnc2[nH]cnc12)c1ccc[nH]1` [I-22], for which the GI50 in data set [2] (48 h incubation) was over 100 µM; in data set [1] (48 h incubation), 7.1 µM; in data set [3] (48 h incubation), 9.2 µM; in data set [6] (48 h incubation), 5.6 µM; in data set [4] (48 h incubation), 6.9 µM; in data set [5] it was 12 µM.

`CC[C@]1(O)C[C@H]2CN(CCc3c([nH]c4ccccc34)[C@@](C(=O)OC)(c3cc4c(cc3OC)N(C=O)[C@H]3[C@@](O)(C(=O)OC)[C@H](OC(C)=O)[C@]5(CC)C=CCN6CC[C@]43[C@@H]65)C2)C1` [vincristine]: in the data set on HL60-VCR, the “resistance expressed by HL60-VCR” value was 1300 fold.

The term GI50 denotes the concentration at which growth is held to half of that of the control. Lower therefore signals more potent growth inhibition.
